Laboratory results: ChEMBL document CHEMBL5727392, “2,4-disubstituted pyrimidines as CDK inhibitors” (2019)
pIC50: −log10 of the molar value.

Target: Cyclin-dependent kinase 4 (Homo sapiens, UniProt P11802)
Test: Caliper Mobility Shift Assay: CDK4: The test compound was dissolved in DMSO and diluted with a kinase buffer solution (20 mM HEPES-pH 7.5, 0.01% Triton X-100, 10 mM MgCl2, 2 mM DTT) and 5 μL of compound at 5-fold final concentration of reaction dissolved in 10% DMSO was added in a 384-well plate. The compound-free control well was 5 μL of 10% DMSO, and the no-activity control well was 5 μL of kinase buffer. 10 μL of a 2.5-fold diluted CDK4 enzyme solution (GST-CDK4(1-303 end)) was added and incubated at room temperature for 10 min, and then 10 μL of the 2.5-fold diluted substrate solution Peptide FAM-P8 was added. The reaction was stopped by adding 25 μL of stop solution after incubation at 28° C. for 3 h, and the conversion rate data was read on a Caliper EZ Reader II (Caliper Life Sciences) and the conversion rate was converted to inhibition rate data according to above method.

Cyclin-dependent kinase 4, sequence (P11802 whole entry): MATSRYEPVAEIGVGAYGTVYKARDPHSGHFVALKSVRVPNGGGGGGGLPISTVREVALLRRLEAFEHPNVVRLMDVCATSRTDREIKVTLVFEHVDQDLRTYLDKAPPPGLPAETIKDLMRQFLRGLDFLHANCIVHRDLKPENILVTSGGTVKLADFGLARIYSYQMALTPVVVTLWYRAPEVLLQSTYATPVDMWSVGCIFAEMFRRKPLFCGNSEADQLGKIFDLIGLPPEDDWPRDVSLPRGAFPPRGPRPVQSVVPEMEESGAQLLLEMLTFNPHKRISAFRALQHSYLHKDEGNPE

Row | pIC50 | Structure (SMILES)
1 | > 7.70 | CC(C)c1c(C#N)n(C2CC2)c2ccc(-c3nc(Nc4ccc(CN5CCN(C6CC6)CC5)cn4)ncc3F)cc12
2 | > 7.70 | CC(C)c1c2ccc(-c3nc(Nc4ccc(N5CCNCC5)cn4)ncc3F)c(Cl)c2nn1C
